{"source": "paper PMC10066365", "about": "“Nemacol is a small molecule inhibitor of C. elegans vesicular acetylcholine transporter with anthelmintic potential” (Nature Communications, 2023)", "test_system": "C. elegans", "test": "C. elegans motor phenotype scoring on solid media (Punc/jerky-unc, coiled, paralyzed), wild-type young adults", "assay_type": "in vivo, Caenorhabditis elegans", "conditions": "for C1 (number of animals scored) / C2 (number of animals scored) / Fraction Coiled, AVERAGES / Fraction Paralyzed, AVERAGES / Fraction Punc, AVERAGES / NP (number of animals scored) / P (number of animals scored) / Punc (number of animals scored) / Fraction Coiled / Fraction Paralyzed / Fraction Punc / Next Day: Animals alive (moving fine): adults; for Fraction Coiled / Fraction Paralyzed / Fraction Punc: single experiment", "key": {"[1]": {"conditions": "60uM, one hour, young adults, 20 animals per trial, single replicate counts"}}, "note": "Several values for one entry are separate records, joined by “and”; a condition that tells them apart may be missing. Identical values can stand only once. Entries after “also recorded” stand apart in the source; their conditions may differ."}
{"smiles": "O=[N+]([O-])c1ccc(N2CCN(CC3CC4C=CC3C4)CC2)cc1", "note": "(centres unmarked) [Nemacol-3]", "values": [{"measurement": "C1 (number of animals scored)", "setting": "30 μM, 120 min", "value": 0}, {"measurement": "C2 (number of animals scored)", "setting": "30 μM, 120 min", "value": 0}, {"measurement": "Fraction Coiled, AVERAGES", "setting": "30 μM, 120 min", "value": 0.0}, {"measurement": "Fraction Paralyzed, AVERAGES", "setting": "30 μM, 120 min", "value": 0.0}, {"measurement": "Fraction Punc, AVERAGES", "setting": "30 μM, 120 min", "value": 0.0741}, {"measurement": "NP (number of animals scored)", "setting": "30 μM, 120 min", "value": "17 and 16"}, {"measurement": "P (number of animals scored)", "setting": "30 μM, 120 min", "value": 0}, {"measurement": "Punc (number of animals scored)", "setting": "30 μM, 120 min", "value": "1 and 2"}, {"measurement": "Fraction Coiled", "setting": "30 μM, 120 min", "value": 0.0}, {"measurement": "Fraction Paralyzed", "setting": "30 μM, 120 min", "value": 0.0}, {"measurement": "Fraction Punc", "setting": "30 μM, 120 min", "value": "0.0556 and 0.111"}, {"measurement": "C1 (number of animals scored)", "setting": "30 μM, 240 min", "value": 0}, {"measurement": "C2 (number of animals scored)", "setting": "30 μM, 240 min", "value": 0}, {"measurement": "Fraction Coiled, AVERAGES", "setting": "30 μM, 240 min", "value": 0.0}, {"measurement": "Fraction Paralyzed, AVERAGES", "setting": "30 μM, 240 min", "value": 0.0}, {"measurement": "Fraction Punc, AVERAGES", "setting": "30 μM, 240 min", "value": 0.0}, {"measurement": "NP (number of animals scored)", "setting": "30 μM, 240 min", "value": 18}, {"measurement": "P (number of animals scored)", "setting": "30 μM, 240 min", "value": 0}, {"measurement": "Punc (number of animals scored)", "setting": "30 μM, 240 min", "value": 0}, {"measurement": "Fraction Coiled", "setting": "30 μM, 240 min", "value": 0.0}, {"measurement": "Fraction Paralyzed", "setting": "30 μM, 240 min", "value": 0.0}, {"measurement": "Fraction Punc", "setting": "30 μM, 240 min", "value": 0.0}, {"measurement": "C1 (number of animals scored)", "setting": "30 μM, 360 min", "value": 0}, {"measurement": "C2 (number of animals scored)", "setting": "30 μM, 360 min", "value": 0}, {"measurement": "Fraction Coiled, AVERAGES", "setting": "30 μM, 360 min", "value": 0.0}, {"measurement": "Fraction Paralyzed, AVERAGES", "setting": "30 μM, 360 min", "value": 0.0}, {"measurement": "Fraction Punc, AVERAGES", "setting": "30 μM, 360 min", "value": 0.0}, {"measurement": "NP (number of animals scored)", "setting": "30 μM, 360 min", "value": 18}, {"measurement": "P (number of animals scored)", "setting": "30 μM, 360 min", "value": 0}, {"measurement": "Punc (number of animals scored)", "setting": "30 μM, 360 min", "value": 0}, {"measurement": "Fraction Coiled", "setting": "30 μM, 360 min", "value": 0.0}, {"measurement": "Fraction Paralyzed", "setting": "30 μM, 360 min", "value": 0.0}, {"measurement": "Fraction Punc", "setting": "30 μM, 360 min", "value": 0.0}, {"measurement": "Next Day: Animals alive (moving fine)", "setting": "30 μM", "value": "alive, recovered; also recorded: alive, recoveed"}, {"measurement": "C1 (number of animals scored)", "setting": "60 μM, 30 min", "value": 0}, {"measurement": "C2 (number of animals scored)", "setting": "60 μM, 30 min", "value": 0}, {"measurement": "Fraction Coiled, AVERAGES", "setting": "60 μM, 30 min", "value": 0.0}, {"measurement": "Fraction Paralyzed, AVERAGES", "setting": "60 μM, 30 min", "value": 0.0}, {"measurement": "Fraction Punc, AVERAGES", "setting": "60 μM, 30 min", "value": 0.667}, {"measurement": "NP (number of animals scored)", "setting": "60 μM, 30 min", "value": "8 and 6 and 4"}, {"measurement": "P (number of animals scored)", "setting": "60 μM, 30 min", "value": 0}, {"measurement": "Punc (number of animals scored)", "setting": "60 μM, 30 min", "value": "10 and 12 and 14"}, {"measurement": "Fraction Coiled", "setting": "60 μM, 30 min", "value": 0.0}, {"measurement": "Fraction Paralyzed", "setting": "60 μM, 30 min", "value": 0.0}, {"measurement": "Fraction Punc", "setting": "60 μM, 30 min", "value": "0.556 and 0.667 and 0.8"}, {"measurement": "C1 (number of animals scored)", "setting": "60 μM, 60 min", "value": 0}, {"measurement": "C2 (number of animals scored)", "setting": "60 μM, 60 min", "value": 0}, {"measurement": "Fraction Coiled, AVERAGES", "setting": "60 μM, 60 min", "value": 0.0}, {"measurement": "Fraction Paralyzed, AVERAGES", "setting": "60 μM, 60 min", "value": 0.0}, {"measurement": "Fraction Punc, AVERAGES", "setting": "60 μM, 60 min", "value": 0.741}, {"measurement": "NP (number of animals scored)", "setting": "60 μM, 60 min", "value": "5 and 3 and 6"}, {"measurement": "P (number of animals scored)", "setting": "60 μM, 60 min", "value": 0}, {"measurement": "Punc (number of animals scored)", "setting": "60 μM, 60 min", "value": "13 and 15 and 12"}, {"measurement": "Fraction Coiled", "setting": "60 μM, 60 min", "value": 0.0}, {"measurement": "Fraction Paralyzed", "setting": "60 μM, 60 min", "value": 0.0}, {"measurement": "Fraction Punc", "setting": "60 μM, 60 min", "value": "0.8 and 0.667"}, {"measurement": "C1 (number of animals scored)", "setting": "60 μM, 90 min", "value": 0}, {"measurement": "C2 (number of animals scored)", "setting": "60 μM, 90 min", "value": 0}, {"measurement": "Fraction Coiled, AVERAGES", "setting": "60 μM, 90 min", "value": 0.0}, {"measurement": "Fraction Paralyzed, AVERAGES", "setting": "60 μM, 90 min", "value": 0.0}, {"measurement": "Fraction Punc, AVERAGES", "setting": "60 μM, 90 min", "value": 0.463}, {"measurement": "P (number of animals scored)", "setting": "60 μM, 90 min", "value": 0}, {"measurement": "Fraction Coiled", "setting": "60 μM, 90 min", "value": 0.0}, {"measurement": "Fraction Paralyzed", "setting": "60 μM, 90 min", "value": 0.0}, {"measurement": "C1 (number of animals scored)", "setting": "60 μM, 120 min", "value": 0}, {"measurement": "C2 (number of animals scored)", "setting": "60 μM, 120 min", "value": 0}, {"measurement": "Fraction Coiled, AVERAGES", "setting": "60 μM, 120 min", "value": 0.0}, {"measurement": "Fraction Paralyzed, AVERAGES", "setting": "60 μM, 120 min", "value": 0.0}, {"measurement": "Fraction Punc, AVERAGES", "setting": "60 μM, 120 min", "value": 0.259}, {"measurement": "NP (number of animals scored)", "setting": "60 μM, 120 min", "value": "10 and 15"}, {"measurement": "P (number of animals scored)", "setting": "60 μM, 120 min", "value": 0}, {"measurement": "Fraction Coiled", "setting": "60 μM, 120 min", "value": 0.0}, {"measurement": "Fraction Paralyzed", "setting": "60 μM, 120 min", "value": 0.0}, {"measurement": "C1 (number of animals scored)", "setting": "60 μM, 240 min", "value": 0}, {"measurement": "C2 (number of animals scored)", "setting": "60 μM, 240 min", "value": 0}, {"measurement": "Fraction Coiled, AVERAGES", "setting": "60 μM, 240 min", "value": 0.0}, {"measurement": "Fraction Paralyzed, AVERAGES", "setting": "60 μM, 240 min", "value": 0.0}, {"measurement": "Fraction Punc, AVERAGES", "setting": "60 μM, 240 min", "value": 0.037}, {"measurement": "NP (number of animals scored)", "setting": "60 μM, 240 min", "value": "18 and 16"}, {"measurement": "P (number of animals scored)", "setting": "60 μM, 240 min", "value": 0}, {"measurement": "Fraction Coiled", "setting": "60 μM, 240 min", "value": 0.0}, {"measurement": "Fraction Paralyzed", "setting": "60 μM, 240 min", "value": 0.0}, {"measurement": "Fraction Punc", "setting": "60 μM, 240 min", "value": 0.0}, {"measurement": "C1 (number of animals scored)", "setting": "60 μM, 360 min", "value": 0}, {"measurement": "C2 (number of animals scored)", "setting": "60 μM, 360 min", "value": 0}, {"measurement": "Fraction Coiled, AVERAGES", "setting": "60 μM, 360 min", "value": 0.0}, {"measurement": "Fraction Paralyzed, AVERAGES", "setting": "60 μM, 360 min", "value": 0.0}, {"measurement": "Fraction Punc, AVERAGES", "setting": "60 μM, 360 min", "value": 0.0}, {"measurement": "NP (number of animals scored)", "setting": "60 μM, 360 min", "value": 18}, {"measurement": "P (number of animals scored)", "setting": "60 μM, 360 min", "value": 0}, {"measurement": "Punc (number of animals scored)", "setting": "60 μM, 360 min", "value": 0}, {"measurement": "Fraction Coiled", "setting": "60 μM, 360 min", "value": 0.0}, {"measurement": "Fraction Paralyzed", "setting": "60 μM, 360 min", "value": 0.0}, {"measurement": "Fraction Punc", "setting": "60 μM, 360 min", "value": 0.0}, {"measurement": "Next Day: Animals alive (moving fine)", "setting": "60 μM", "value": "alive, recovered; also recorded: alive recovered"}, {"measurement": "any phene, mean % fraction of young adults exhibiting any phenotype (coiled, jerky-Unc or paralyzed)", "setting": "60uM, one hour, mean of three biological replicates", "value": 95.8333, "unit": "%"}, {"measurement": "atypical locomotion (number of animals)", "setting": "[1]", "value": "5 and 8 and 9 and 7 and 0 and 4"}, {"measurement": "coiled (number of animals)", "setting": "[1]", "value": "8 and 6 and 10"}, {"measurement": "no phene (number of animals)", "setting": "[1]", "value": "0 and 2 and 3"}, {"measurement": "paralyzed (number of animals)", "setting": "[1]", "value": "7 and 6 and 1 and 4 and 10 and 8"}, {"measurement": "EC50", "setting": "Caenorhabditis elegans, 1 h, Fig. 1, dose-response at 60 min, wild-type young adults, +/- 95% CI, read-out: EC50", "value": "24.5 ± 6.1", "unit": "µM"}]}
